Test results published in ChEMBL document CHEMBL1143100, “Phenylethynyl-pyrrolo[1,2-a]pyrazine: a new potent and selective tool in the mGluR5 antagonists arena” (Bioorg Med Chem Lett, 2008).
Converted amounts (≈) assume the structure as drawn.

How the values were obtained:
[1] = molecular target: Metabotropic glutamate receptor 5 (Homo sapiens, UniProt P41594); assay: Antagonist activity at human mGluR5 expressed in CHO cells assessed as increase in intracellular calcium level by FLIPR; format: functional, cell-based
[2] = Solubility at pH 7.4; format: physicochemical; conditions: buffer

Sequence of Metabotropic glutamate receptor 5 (P41594 whole entry): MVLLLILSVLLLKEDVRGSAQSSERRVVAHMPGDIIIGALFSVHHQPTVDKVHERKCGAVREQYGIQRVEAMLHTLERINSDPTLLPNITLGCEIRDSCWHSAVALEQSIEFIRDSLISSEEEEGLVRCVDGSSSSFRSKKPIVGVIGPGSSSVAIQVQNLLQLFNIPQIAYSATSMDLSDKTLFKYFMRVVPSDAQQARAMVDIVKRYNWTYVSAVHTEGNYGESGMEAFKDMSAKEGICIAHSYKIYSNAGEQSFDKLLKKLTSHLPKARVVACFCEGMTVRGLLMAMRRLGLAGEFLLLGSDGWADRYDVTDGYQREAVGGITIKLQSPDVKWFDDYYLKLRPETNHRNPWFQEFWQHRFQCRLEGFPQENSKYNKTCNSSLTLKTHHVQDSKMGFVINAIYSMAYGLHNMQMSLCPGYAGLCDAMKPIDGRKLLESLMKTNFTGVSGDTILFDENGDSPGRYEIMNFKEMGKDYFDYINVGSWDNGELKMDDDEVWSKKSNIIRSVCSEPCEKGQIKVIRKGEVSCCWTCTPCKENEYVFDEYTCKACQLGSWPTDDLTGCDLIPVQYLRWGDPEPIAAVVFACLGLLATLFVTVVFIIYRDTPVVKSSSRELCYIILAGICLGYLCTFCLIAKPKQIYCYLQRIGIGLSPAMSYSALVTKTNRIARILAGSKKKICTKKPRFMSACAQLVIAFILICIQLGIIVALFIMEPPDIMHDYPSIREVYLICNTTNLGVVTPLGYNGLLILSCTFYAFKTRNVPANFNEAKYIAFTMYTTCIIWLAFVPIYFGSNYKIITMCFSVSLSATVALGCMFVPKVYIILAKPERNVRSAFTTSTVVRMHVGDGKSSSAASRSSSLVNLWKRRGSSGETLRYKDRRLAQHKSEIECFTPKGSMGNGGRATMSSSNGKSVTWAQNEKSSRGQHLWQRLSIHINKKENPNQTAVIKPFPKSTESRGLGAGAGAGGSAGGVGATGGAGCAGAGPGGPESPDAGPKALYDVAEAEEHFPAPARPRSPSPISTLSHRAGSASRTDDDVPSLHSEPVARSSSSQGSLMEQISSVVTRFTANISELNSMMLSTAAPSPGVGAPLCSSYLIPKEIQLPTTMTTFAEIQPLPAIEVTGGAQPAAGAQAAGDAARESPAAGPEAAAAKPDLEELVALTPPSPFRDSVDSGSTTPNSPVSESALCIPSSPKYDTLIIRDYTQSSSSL

Row | SMILES | IC50 [1] [nM] | solubility [2] [µg/mL]
1 | Cc1cn2cc(C(F)(F)F)cc2c(C#Cc2ccc(NS(C)(=O)=O)cc2)n1 | > 15800 | 
2 | Cc1cn2cc(C(=O)N3CCCCC3C)cc2c(C#Cc2ccsc2)n1 (configuration not stated) | 100 | 
3 | Cc1cn2cc(C(=O)N3CCCC3C)cc2c(C#Cc2ccsc2)n1 (configuration not stated) | 39.8 | 
4 | Cc1cc2c(C#Cc3ccc(C(F)(F)F)cc3)nc(C)cn2c1 | > 15800 | 
5 | Cc1cn2cc(C(N)=O)cc2c(C#Cc2ccccc2F)n1 | 501 | 
6 | Cc1cn2cccc2c(C#Cc2ccc(Br)cc2)n1 | > 12600 | 
7 | Cc1cn2cc(C#N)cc2c(C#Cc2cccc(F)c2)n1 | 0.794 | 
8 | Cc1cc2c(C#Cc3cccnc3)nc(C)cn2c1 | 2000 | 
9 | Cc1cn2cc(C(=O)N3CCN(C)CC3)cc2c(C#Cc2cccc(C(F)(F)F)c2)n1 | 251 | 
10 | Cc1cc2c(C#Cc3ccccc3)nc(C)cn2c1 | 50.1 | 
11 | Cc1cccc(C#Cc2nc(C)cn3cccc23)c1 | 0.398 | 
12 | Cc1cn2cc(CN3CCNC(=O)C3)cc2c(C#Cc2ccccc2)n1 | 200 | 
13 | Cc1cn2cc(C(=O)N3CCC(F)(F)C3)cc2c(C#Cc2ccsc2)n1 | 126 | 
14 | CCOC(=O)c1cc2c(C#Cc3ccc(C#N)cc3)nc(C)cn2c1 | > 15800 | 
15 | Cc1cn2cc(C(=O)N3CCN(C)CC3)cc2c(C#Cc2ccsc2)n1 | 158 | 
16 | Cc1cn2cc(C(=O)N3CCCC3)cc2c(C#Cc2ccsc2)n1 | 20 | 
17 | Cc1cn2cc(C(F)(F)F)cc2c(C#Cc2ccc(C(F)(F)F)cc2)n1 | > 15800 | 
18 | Cc1cn2cc(C(F)(F)F)cc2c(C#Cc2ccc(F)cc2F)n1 | > 15800 | 
19 | Cc1cccc(C#Cc2ccccc2)n1 |  | 70 (≈ 362 µM)

Further lines, results first:

Row | IC50 [1] [nM] | solubility [2] [µg/mL] | SMILES
20 | > 12600 |  | Cc1cn2cc(C(F)(F)F)cc2c(C#Cc2cccc(C(=O)O)c2)n1
21 | 10000 |  | Cc1cn2cc(C(F)(F)F)cc2c(C#Cc2cccc(-c3ccoc3)c2)n1
22 | > 12600 |  | Cc1cn2cc(C(F)(F)F)cc2c(C#Cc2cccc(-c3c(C)noc3C)c2)n1
23 | 25.1 |  | Cc1cn2cc(C(F)(F)F)cc2c(C#Cc2cccc(Br)c2)n1
24 | 5010 |  | Cc1cn2cc(C(F)(F)F)cc2c(C#Cc2cccc(-c3ccsc3)c2)n1
25 | 501 |  | Cc1cn2cc(C(F)(F)F)cc2c(C#Cc2cccnc2)n1
26 | > 15800 |  | Cc1cn2cc(C(F)(F)F)cc2c(C#Cc2ccc(C#N)cc2)n1
27 | 63.1 |  | Cc1cn2cc(C(F)(F)F)cc2c(C#Cc2cccs2)n1
